Data taken from patent publication US8962685B2 (Vireo Systems Inc., priority 2003, dated 2015).

Assays:
[1] = Plasma uptake and relative bioavailability after oral administration in healthy human volunteers (Example 3); conditions: for Plasma creatine following administration: oral 5 gram dose, versus pre-dose
Text: The order of treatment was randomly assigned and there was a 1-week wash out period between creatine treatments.

[2] = Stability of creatine in aqueous solution over 45 days (Example 4)
Text: With regard to latent product storage, standard shelf-life according to the FDA is considered to be the time it takes for 10 percent of the starting material to degrade in a given sample. […] Each data point is representative of three different samples. […] The creatine content of each sample was examined over a 45-day period.

[3] = cited from earlier work

| SMILES | increase in bioavailability ([1]; in vivo, po) | Plasma creatine following administration [1] | shelf-life in aqueous solution (time for 10 percent to degrade) ([2]; 1.5 mg/mL) | original creatine remaining in the aqueous solution ([2]; buffer, 1080 h, 1.5 mg/mL) | standard degradation time in water [3] | original creatine remaining in the aqueous solution ([2]; room temperature (about 21° C.), 45 days, initially 1.5 mg/mL) |
| --- | --- | --- | --- | --- | --- | --- |
| CN(CC(=O)O)C(=N)N.Cl [creatine HCl, creatine hydrochloride] | approximately 50% | significantly elevated | ≥ 45 days | approximately 95% | – | – |
| CCOC(=O)CN(C)C(=N)N [creatine ethyl ester] | – | – | – | – | less than one | – |
| CN(CC(=O)O)C(=N)N.O [creatine monohydrate] | – | significantly elevated | – | – | – | about 75% |
